Assay results taken from article PMC6410080 (Viruses, 2019).
Where two headings read alike, the source gives them in different places.

Tests used:
SFV [1] = experiment: microbe, parasite or virus in culture; assay type: cell-based, Semliki Forest virus; settings: for % inhibition (SFV screen): 10 µM
DENV-2 = DENV-2 infection assay / secondary screen (E protein staining); assay type: cell-based, dengue virus serotype 2; settings: for % inhibition (DENV-2 screen): 10 µM
SINV = experiment: microbe, parasite or virus in culture; assay type: cell-based, Sindbis virus; settings: read-out: IC50 SINV
DENV-1 = experiment: microbe, parasite or virus in culture; assay type: cell-based, dengue virus; settings: read-out: IC50 DENV-1
DENV-3 = experiment: microbe, parasite or virus in culture; assay type: cell-based, dengue virus; settings: read-out: IC50 DENV-3
ZIKV [2] = experiment: microbe, parasite or virus in culture; assay type: cell-based, Zika virus; settings: for IC50: read-out: IC50 ZIKV
YF17D = experiment: organism not typed; assay type: cell-based, yellow fever 17D; settings: read-out: IC50 YF17D
HCV = experiment: microbe, parasite or virus in culture; assay type: cell-based, hepatitis C virus; settings: read-out: IC50 HCV
VSV VLP = experiment: microbe, parasite or virus in culture; assay type: cell-based, vesicular stomatitis virus; settings: read-out: IC50 VSV
RABV VLP = experiment: microbe, parasite or virus in culture; assay type: cell-based, rabies virus; settings: read-out: IC50 RABV
H5N1 VLP = experiment: microbe, parasite or virus in culture; assay type: cell-based, influenza H5N1
EBOV VLP = experiment: microbe, parasite or virus in culture; assay type: cell-based, Ebola virus
HIV-1 = experiment: microbe, parasite or virus in culture; assay type: cell-based, human immunodeficiency virus type 1; settings: for IC50: read-out: IC50 HIV
HSV-1 = experiment: microbe, parasite or virus in culture; assay type: cell-based, herpes simplex virus 1; settings: for IC50: read-out: IC50 HSV (Vero)
VACV = experiment: microbe, parasite or virus in culture; assay type: cell-based, vaccinia virus; settings: for IC50: read-out: IC50 VACV
[3] = system: Renilla luciferase expression (protein synthesis); assay type: cell-based
SFV [4] = assay type: cell-based, Semliki Forest virus
viruses/VLPs tested = assay type: cell-based
HeLa Kyoto cells [5] = system: HeLa Kyoto cells
HeLa Kyoto cells [6] = settings: 10 µM
Huh7 cells [7] = settings: 10 µM
Huh7 cells [8] = experiment: MTT assay, Huh7 cells; settings: for TC50 DENV-2 (7 + 17 h): Huh7, compounds 7 h then compound-free media 17 h; for TC50 DENV-2 (24 h): Huh7, compounds 24 h
ZIKV [9] = settings: AG129 mice
[10] = Huh7, MOI 1, 24 h, compared to DMSO-treated controls
[11] = Huh7, compounds 7 h then media replaced for 17 h, read-out: IC50 DENV-2 (7 + 17 h)
[12] = Huh7, compounds for entire 24 h, read-out: IC50 DENV-2 (24 h)

Row | SMILES | % inhibition (SFV screen) (SFV [1]) [%] | % inhibition (DENV-2 screen) (DENV-2; [10]) [%] | IC50 (DENV-2; [11]) [µM] | IC50 (DENV-2; [12]) [µM] | IC50 (SINV) [µM] | IC50 (DENV-1) [µM] | IC50 (DENV-3) [µM] | IC50 (ZIKV [2]) [µM] | IC50 (YF17D) [µM] | IC50 (HCV) [µM] | IC50 (VSV VLP) [µM] | IC50 (RABV VLP) [µM] | Activity when added before SFV or 30 and 60 min after internalisation (SFV [4]) | Time of Addition (SFV [4]) | TC50 SFV (7 h) (HeLa Kyoto cells [5]) [µM] | TC50 SFV (7h) (HeLa Kyoto cells [5]) [µM] | % viability (SFV screen) (HeLa Kyoto cells [6]) [%] | % viability (DENV-2 screen) (Huh7 cells [7]) [%] | TC50 DENV-2 (7 + 17 h) (Huh7 cells [8]) [µM] | TC50 DENV-2 (24 h) (Huh7 cells [8]) [µM] | also measured
1 | Cc1ccc(S(=O)(=O)N[C@@H](Cc2ccccc2)C(=O)CCl)cc1 [N-p-Tosyl-L-PCK, N-p-Tosyl-L-phenylalanine chloromethyl ketone] | 82.34 | 60.35 | 19.6 | 7.5 | 11.9 | 25.6 | 24.2 | 24.3 | 4.6 | ~13 | 11.5 | 15 | act exclusively before (or at the stage of) fusion | Before fusion | 42.7 | 42700 | 95.24 | 58.91 | 24.2 | 31.7 | IC50 (SFV [1]; read-out: IC50 SFV (7 h)): 10.7 µM; IC50 H5N1 (H5N1 VLP): No inhibition; IC50 EBOV (EBOV VLP): No inhibition; IC50 (HIV-1): 12.5 µM; IC50 HSV (Vero) (HSV-1): No inhibition; IC50 (VACV): 14.4 µM; Decrease of Renilla signal (protein synthesis) [3]: more than 50%; Inhibition of protein synthesis at lower concentrations [3]: partially inhibits protein synthesis but not virus infection; Viruses Inhibited (viruses/VLPs tested): Unclear pattern
2 | C=CCN1CC[C@]23c4c5ccc(O)c4O[C@@H]2/C(=N/N=C2\CC[C@@]4(O)C6Cc7ccc(O)c8c7[C@@]4(CCN6CC=C)[C@@H]2O8)CC[C@@]3(O)C1C5.Cl.Cl [Naloxonazine dihydrochloride] | 70.80 | – | – | – | – | – | – | – | – | – | – | – | – | – | – | – | 87.36 | 111.66 | – | – | % inhibition (DENV-2 screen) (DENV-2): 16.23%
3 | CC(C)OC(=O)[C@H](C)N[P@](=O)(OC[C@H]1O[C@@H](n2ccc(=O)[nH]c2=O)[C@](C)(F)[C@@H]1O)Oc1ccccc1 [Sofosbuvir] | – | – | – | – | – | – | – | – | – | – | – | – | – | – | – | – | – | – | – | – | Infectious virus in the blood at day 7 p.i. (ZIKV [9]; immunofocus assay): cleared infectious virus from the blood by day 7; ZIKV blood titres at day 1 p.i. (ZIKV [9]; qRT-PCR and immunofocus assay, vs untreated): significantly reduced blood titres
4 | O=[N+]([O-])c1ccc2c(c1)S(=O)(=O)C=C2 [Stattic] | 95.82 | 87.08 | 3 | 0.9 | 3.6 | – | – | 4 | 4.9 | 3.7 | – | 3.2 | No difference | After fusion | 7.8 | 7800 | 64.89 | 60.49 | 17.3 | 9.7 | IC50 H5N1 (H5N1 VLP): Toxic; IC50 EBOV (EBOV VLP): Toxic; IC50 (HIV-1): 3.2 µM; IC50 (HSV-1): 5.2 µM; IC50 (VACV): 4.1 µM; Decrease of Renilla signal (protein synthesis) [3]: more than 50%; Inhibition of protein synthesis at lower concentrations [3]: lose their inhibitory activity on protein synthesis; Viruses Inhibited (viruses/VLPs tested): All tested
5 | CC(=O)/C=C1\C(=O)N(C)c2ccccc21 [Supercinnamaldehyde] | 89.06 | 64.49 | 15.4 | 15 | 24.9 | ~22.7 | 12.2 | – | 7.6 | 15.8 | 14.6 | 21.6 | No difference | After fusion | 40.5 | 40500 | 69.48 | 90.32 | 59.6 | 25.8 | IC50 ZIKV (ZIKV [2]): No inhibition; IC50 (H5N1 VLP; read-out: IC50 H5N1): 17.5 µM; IC50 (EBOV VLP; read-out: IC50 EBOV): 21.2 µM; IC50 HIV (HIV-1): No inhibition; IC50 (HSV-1): 25.2 µM; IC50 VACV (VACV): No inhibition
6 | CCSc1ccc2c(c1)N(CCCN1CCN(C)CC1)c1ccccc1S2.O=C(O)CC(O)C(=O)O.O=C(O)CC(O)C(=O)O [Thiethylperazine dimalate] | 91.68 | – | – | – | – | – | – | – | – | – | – | – | – | – | – | – | 92.47 | 0.15 | – | – | –
